Calls of active or inactive are those of the source.
Legend:
[1] = molecular target: DNA dC->dU-editing enzyme APOBEC-3A (Homo sapiens, UniProt P31941); assay: APOBEC3A DNA deaminase inhibitors, dose response, biochemical (AID 504722); assay type: functional
[2] = molecular target: DNA dC->dU-editing enzyme APOBEC-3G (Homo sapiens, UniProt Q9HC16); assay: Dose Response confirmation of small molecule APOBEC3G DNA Deaminase Inhibitors via a fluorescence-based single-stranded DNA deaminase assay. [Related pubchem assays (depositor defined):AID493012, AID493028]; assay type: functional
Sequence of DNA dC->dU-editing enzyme APOBEC-3G (Q9HC16 whole entry): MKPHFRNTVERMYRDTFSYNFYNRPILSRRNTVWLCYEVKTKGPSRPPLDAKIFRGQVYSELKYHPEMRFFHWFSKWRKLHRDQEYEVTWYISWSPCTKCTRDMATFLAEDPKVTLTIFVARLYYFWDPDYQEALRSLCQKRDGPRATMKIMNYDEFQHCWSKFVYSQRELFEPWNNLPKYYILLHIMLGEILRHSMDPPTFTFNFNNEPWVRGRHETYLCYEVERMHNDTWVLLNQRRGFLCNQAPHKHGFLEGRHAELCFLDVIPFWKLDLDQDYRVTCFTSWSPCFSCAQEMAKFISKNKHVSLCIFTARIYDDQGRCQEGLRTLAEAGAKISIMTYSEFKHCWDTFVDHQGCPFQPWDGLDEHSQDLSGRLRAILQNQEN

[3] = molecular target: Eukaryotic translation initiation factor 4E (Mus musculus, UniProt P63073); assay: eIF4E–eIF4G protein interaction inhibitors, dose response, biochemical, TR-FRET (AID 855); assay type: functional;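 further: potency for disrupting eIF4E binding to eIF4GI seen as loss of FRET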
Sequence of Eukaryotic translation initiation factor 4E (P63073 whole entry): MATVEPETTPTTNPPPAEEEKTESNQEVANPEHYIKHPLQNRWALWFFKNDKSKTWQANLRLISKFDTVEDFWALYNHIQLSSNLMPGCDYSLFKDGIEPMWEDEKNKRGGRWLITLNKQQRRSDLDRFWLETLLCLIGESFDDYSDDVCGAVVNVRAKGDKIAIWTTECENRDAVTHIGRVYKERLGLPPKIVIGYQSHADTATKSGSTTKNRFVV

[4] = molecular target: T1, Rac GTPase-activating protein 1 (Homo sapiens, UniProt Q9H0H5); assay: MgcRacGAP GTPase-activating activity inhibitors, confirmation, biochemical, ADP Hunter fluorescence, primary and confirmatory (AID 624330); assay type: functional
T1 sequence (Q9H0H5 whole entry): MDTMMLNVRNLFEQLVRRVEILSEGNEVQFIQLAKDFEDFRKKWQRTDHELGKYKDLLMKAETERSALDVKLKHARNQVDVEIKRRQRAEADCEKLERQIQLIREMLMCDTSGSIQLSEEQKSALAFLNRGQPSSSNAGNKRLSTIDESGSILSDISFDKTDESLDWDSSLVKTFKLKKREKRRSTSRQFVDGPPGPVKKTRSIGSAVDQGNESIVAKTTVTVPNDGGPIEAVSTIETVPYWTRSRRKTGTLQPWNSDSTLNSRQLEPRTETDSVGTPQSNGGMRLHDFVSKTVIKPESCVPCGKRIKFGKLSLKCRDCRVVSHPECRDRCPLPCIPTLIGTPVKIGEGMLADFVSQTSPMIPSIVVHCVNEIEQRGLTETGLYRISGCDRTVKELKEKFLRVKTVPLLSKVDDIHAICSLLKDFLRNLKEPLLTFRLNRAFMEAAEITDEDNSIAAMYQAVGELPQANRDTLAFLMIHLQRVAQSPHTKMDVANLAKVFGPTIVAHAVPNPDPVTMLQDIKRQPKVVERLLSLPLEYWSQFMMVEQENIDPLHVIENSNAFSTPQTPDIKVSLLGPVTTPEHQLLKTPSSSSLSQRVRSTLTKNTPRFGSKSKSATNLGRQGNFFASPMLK

[5] = molecular target: Peroxisome proliferator-activated receptor gamma/Nuclear receptor coactivator 2 (Homo sapiens, UniProt P37231); assay type: functional;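 further: agonist potency for raising coactivator recruitment to the receptor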
[6] = molecular target: Peroxisome proliferator-activated receptor gamma/Nuclear receptor coactivator 1 (Homo sapiens, UniProt P37231); assay type: functional;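 further: agonist potency as compounds enhance coactivator SRC-1 recruitment to PPARgamma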
Sequence of Peroxisome proliferator-activated receptor gamma/Nuclear receptor coactivator 1 (P37231 whole entry): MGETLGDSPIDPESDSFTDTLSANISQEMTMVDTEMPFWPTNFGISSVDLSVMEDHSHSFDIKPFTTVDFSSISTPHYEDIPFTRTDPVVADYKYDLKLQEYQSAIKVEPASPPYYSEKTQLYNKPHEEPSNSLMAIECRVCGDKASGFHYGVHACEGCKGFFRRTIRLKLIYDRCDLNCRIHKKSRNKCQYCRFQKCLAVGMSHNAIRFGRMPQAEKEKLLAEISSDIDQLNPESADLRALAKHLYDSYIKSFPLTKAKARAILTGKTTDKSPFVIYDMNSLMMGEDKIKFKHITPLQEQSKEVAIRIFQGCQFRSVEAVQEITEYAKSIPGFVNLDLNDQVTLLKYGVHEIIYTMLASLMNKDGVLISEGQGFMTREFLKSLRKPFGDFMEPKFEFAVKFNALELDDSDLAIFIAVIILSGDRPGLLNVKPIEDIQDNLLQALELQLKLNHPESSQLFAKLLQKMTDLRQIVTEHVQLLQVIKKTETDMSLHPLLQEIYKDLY
Sequence of Peroxisome proliferator-activated receptor gamma/Nuclear receptor coactivator 1 (Q15788 whole entry, further chain): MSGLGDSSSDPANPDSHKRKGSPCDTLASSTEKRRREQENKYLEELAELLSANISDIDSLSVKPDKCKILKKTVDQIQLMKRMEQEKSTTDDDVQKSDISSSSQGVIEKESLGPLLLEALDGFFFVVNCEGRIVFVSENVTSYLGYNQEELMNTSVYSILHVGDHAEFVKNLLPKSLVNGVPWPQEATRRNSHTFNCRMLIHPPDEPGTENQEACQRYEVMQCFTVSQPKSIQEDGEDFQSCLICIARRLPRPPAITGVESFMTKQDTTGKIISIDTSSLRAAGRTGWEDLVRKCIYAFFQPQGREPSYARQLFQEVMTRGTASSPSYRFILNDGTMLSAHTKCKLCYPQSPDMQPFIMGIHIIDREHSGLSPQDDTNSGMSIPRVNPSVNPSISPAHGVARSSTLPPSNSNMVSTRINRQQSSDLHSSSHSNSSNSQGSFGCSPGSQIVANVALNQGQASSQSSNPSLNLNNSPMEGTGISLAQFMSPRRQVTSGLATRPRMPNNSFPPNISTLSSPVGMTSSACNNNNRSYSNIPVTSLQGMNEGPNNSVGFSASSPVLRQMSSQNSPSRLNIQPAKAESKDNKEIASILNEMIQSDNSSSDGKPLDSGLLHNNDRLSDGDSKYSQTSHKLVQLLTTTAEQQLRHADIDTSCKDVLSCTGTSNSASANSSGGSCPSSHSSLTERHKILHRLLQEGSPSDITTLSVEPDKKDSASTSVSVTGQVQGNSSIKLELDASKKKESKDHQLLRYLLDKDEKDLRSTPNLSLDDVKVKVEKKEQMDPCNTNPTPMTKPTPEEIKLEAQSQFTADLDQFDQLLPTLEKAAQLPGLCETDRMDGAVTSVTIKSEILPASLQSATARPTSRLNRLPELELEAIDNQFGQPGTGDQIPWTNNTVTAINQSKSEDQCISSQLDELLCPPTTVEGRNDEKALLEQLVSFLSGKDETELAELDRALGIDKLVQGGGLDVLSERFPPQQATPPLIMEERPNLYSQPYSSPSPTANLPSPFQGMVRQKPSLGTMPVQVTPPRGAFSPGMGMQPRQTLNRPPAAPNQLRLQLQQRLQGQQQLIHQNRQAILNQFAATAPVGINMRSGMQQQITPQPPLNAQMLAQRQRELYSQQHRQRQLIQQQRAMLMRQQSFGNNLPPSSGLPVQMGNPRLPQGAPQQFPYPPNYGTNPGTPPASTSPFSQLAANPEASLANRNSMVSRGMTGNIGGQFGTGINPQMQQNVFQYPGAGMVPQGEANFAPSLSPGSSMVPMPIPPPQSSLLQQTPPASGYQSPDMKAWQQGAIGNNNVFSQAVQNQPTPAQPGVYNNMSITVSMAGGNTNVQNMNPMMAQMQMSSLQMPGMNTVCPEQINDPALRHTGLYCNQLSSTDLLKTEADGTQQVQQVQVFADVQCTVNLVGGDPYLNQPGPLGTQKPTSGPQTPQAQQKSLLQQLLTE

[7] = molecular target: Peroxisome proliferator-activated receptor gamma/Nuclear receptor coactivator 3 (Homo sapiens, UniProt P37231); assay type: functional;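 further: agonist potency for raising coactivator recruitment to the receptor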
Sequence of Peroxisome proliferator-activated receptor gamma/Nuclear receptor coactivator 3 (P37231 whole entry): as the sequence (P37231 whole entry) above
Sequence of Peroxisome proliferator-activated receptor gamma/Nuclear receptor coactivator 3 (Q9Y6Q9 whole entry, further chain): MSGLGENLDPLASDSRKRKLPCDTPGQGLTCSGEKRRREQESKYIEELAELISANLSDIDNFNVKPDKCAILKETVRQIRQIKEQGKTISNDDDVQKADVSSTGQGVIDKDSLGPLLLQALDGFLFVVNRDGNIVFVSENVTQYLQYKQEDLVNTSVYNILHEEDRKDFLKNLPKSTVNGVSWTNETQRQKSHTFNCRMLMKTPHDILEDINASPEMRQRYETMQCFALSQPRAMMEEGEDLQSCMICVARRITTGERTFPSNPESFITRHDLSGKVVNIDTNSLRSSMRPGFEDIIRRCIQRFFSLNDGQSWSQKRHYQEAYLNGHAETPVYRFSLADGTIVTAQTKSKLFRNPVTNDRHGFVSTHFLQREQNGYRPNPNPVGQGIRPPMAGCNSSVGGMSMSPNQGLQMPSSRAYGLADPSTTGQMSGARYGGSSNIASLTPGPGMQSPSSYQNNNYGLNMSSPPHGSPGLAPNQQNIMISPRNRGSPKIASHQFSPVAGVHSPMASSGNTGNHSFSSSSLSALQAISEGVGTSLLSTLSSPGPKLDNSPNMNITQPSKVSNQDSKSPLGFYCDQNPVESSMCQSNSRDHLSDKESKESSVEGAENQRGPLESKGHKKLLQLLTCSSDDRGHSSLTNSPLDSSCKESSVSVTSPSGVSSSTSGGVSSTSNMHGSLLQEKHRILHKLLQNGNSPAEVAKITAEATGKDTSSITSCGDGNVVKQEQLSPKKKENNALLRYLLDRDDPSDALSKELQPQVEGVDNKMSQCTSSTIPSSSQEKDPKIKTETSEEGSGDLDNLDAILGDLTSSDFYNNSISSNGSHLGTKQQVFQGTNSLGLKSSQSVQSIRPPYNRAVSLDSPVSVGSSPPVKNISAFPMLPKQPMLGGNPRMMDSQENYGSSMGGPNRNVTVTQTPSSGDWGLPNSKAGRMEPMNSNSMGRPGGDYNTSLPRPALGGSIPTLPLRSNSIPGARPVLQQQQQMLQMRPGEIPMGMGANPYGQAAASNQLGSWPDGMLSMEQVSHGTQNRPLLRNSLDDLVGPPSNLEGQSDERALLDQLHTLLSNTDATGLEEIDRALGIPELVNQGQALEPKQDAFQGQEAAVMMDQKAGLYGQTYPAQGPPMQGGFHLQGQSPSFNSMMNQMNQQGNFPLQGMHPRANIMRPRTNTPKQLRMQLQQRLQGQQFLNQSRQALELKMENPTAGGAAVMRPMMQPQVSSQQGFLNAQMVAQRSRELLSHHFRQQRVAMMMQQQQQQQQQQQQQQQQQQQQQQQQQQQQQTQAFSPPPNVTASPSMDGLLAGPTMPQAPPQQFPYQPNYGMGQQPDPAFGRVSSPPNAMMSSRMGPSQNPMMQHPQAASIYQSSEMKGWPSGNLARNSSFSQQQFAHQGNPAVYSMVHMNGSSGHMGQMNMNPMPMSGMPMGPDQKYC

Trypsin = Trypsin (Sus scrofa, UniProt P00761); assay: porcine trypsin inhibitors, dose response, selectivity assay for Rce1 protease inhibitor project, biochemical, quenched peptide fluorescence, cherry-pick (AID 488789)
Coagulation factor XII = molecular target: T2, Coagulation factor XII (Homo sapiens, UniProt P00748); assay type: functional;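 further: activated factor XIIa alpha cleaving a fluorogenic AMC peptide substrate; inhibitor potency from loss of enzyme activity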
T2 sequence (P00748 whole entry): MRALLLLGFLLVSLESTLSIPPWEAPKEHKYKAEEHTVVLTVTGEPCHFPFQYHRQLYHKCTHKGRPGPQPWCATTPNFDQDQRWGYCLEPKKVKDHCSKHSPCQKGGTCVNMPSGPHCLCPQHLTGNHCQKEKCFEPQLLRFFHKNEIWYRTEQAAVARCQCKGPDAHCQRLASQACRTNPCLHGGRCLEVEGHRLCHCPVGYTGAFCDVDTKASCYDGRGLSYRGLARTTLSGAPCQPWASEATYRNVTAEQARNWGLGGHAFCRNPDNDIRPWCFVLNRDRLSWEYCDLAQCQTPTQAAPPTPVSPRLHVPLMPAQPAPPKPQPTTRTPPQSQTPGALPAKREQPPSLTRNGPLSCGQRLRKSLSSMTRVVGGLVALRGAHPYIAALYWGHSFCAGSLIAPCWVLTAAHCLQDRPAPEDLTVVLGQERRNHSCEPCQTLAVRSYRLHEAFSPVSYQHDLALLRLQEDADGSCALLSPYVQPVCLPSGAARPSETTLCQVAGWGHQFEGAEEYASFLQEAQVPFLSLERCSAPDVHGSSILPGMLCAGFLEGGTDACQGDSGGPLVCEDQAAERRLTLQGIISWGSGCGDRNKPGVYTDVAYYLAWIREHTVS

[8] = molecular target: T3, Long-chain-fatty-acid--AMP ligase FadD28 (Mycobacterium tuberculosis, UniProt P9WQ59); assay: Fluorescence polarization aasay to screen for inhibitors that compete for the binding of FadD28 to a bisubstrate Measured in Biochemical System Using Plate Reader - 2147-01_Inhibitor_Dose_CherryPick_Activity.; assay type: functional, Mycobacterium tuberculosis H37Rv
T3 sequence (P9WQ59 whole entry): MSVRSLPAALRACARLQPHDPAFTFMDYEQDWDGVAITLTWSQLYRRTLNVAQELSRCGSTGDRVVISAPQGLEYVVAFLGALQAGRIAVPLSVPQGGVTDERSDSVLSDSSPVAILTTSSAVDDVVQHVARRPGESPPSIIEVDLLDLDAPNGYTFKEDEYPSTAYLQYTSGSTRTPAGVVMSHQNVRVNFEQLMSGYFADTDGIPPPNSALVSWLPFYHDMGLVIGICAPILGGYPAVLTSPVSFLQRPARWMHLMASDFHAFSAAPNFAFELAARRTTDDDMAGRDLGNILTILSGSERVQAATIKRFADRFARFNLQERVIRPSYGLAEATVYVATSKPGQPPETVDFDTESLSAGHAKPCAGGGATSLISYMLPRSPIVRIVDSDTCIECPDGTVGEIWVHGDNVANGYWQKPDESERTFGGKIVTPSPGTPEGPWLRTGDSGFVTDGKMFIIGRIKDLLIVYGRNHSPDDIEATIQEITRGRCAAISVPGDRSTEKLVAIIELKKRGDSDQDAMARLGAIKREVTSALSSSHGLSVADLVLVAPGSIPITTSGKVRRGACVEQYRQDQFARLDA

[9] = molecular target: T4, Heat shock factor protein 1 (Mus musculus, UniProt P38532); assay: HSF1 potentiators in luciferase reporter cells, confirmation, cell-based, NIH3T3, luminescence, dose retest (AID 435004); assay type: functional;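 further: stress induced by proteasome inhibitor MG132 added 30 min after compound; luciferase reporter driven by HSF1 response element in NIH3T3 cells; actives raise luminescence as potentiators of the MG132 stress response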
T4 sequence (P38532 whole entry): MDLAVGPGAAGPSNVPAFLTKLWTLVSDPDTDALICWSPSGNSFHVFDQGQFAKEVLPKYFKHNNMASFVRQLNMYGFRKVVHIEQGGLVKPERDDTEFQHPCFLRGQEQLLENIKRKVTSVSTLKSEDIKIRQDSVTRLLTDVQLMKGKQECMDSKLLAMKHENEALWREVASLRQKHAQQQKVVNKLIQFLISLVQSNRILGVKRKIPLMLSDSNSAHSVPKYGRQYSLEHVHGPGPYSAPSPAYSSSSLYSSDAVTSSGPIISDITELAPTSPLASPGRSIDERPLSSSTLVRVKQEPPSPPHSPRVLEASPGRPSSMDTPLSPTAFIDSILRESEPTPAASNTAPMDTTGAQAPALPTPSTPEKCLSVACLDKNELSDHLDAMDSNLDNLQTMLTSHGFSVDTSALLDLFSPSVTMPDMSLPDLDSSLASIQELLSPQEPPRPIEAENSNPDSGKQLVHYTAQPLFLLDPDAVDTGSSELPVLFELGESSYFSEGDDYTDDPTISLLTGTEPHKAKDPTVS

[10] = molecular target: T5, Replicative DNA helicase DnaB (Mycobacterium tuberculosis, UniProt P9WMR3); assay: DnaB intein splicing inhibitors, dose response, biochemical, cell-free fluorescence (AID 449749); assay type: functional
T5 sequence (P9WMR3 whole entry): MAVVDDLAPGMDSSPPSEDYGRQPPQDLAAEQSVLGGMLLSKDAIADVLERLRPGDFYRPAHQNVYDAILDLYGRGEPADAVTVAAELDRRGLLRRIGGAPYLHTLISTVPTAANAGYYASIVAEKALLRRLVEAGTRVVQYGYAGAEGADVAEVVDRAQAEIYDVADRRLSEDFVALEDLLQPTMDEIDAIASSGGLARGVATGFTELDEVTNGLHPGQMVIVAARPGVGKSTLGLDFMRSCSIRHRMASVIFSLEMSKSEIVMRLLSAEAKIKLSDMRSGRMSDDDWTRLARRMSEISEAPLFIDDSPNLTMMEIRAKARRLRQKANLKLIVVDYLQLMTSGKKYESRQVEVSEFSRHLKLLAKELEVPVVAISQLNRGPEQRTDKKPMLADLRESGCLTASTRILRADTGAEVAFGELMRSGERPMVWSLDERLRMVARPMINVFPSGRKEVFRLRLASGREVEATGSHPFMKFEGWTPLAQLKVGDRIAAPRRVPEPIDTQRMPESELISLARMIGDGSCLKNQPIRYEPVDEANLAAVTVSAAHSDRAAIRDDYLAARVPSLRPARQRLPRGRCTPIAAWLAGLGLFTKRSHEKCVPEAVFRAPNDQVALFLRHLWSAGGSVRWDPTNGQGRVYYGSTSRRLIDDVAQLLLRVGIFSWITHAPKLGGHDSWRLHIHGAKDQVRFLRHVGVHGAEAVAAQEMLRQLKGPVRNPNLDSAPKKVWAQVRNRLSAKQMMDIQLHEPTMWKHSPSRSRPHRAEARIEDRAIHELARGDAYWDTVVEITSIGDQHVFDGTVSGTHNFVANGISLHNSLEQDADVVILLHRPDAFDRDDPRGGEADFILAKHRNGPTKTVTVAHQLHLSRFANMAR

[11] = molecular target: Dual specificity tyrosine-phosphorylation-regulated kinase 1A (Rattus norvegicus, UniProt Q63470); assay type: biochemical, Homo sapiens
Protein RecA = molecular target: T6, Protein RecA (Mycobacterium tuberculosis, UniProt P9WHJ3); assay: Fluorescence Cell-Free Homogeneous Dose Retest to Identify Inhibitors of RecA-Intein Splicing Activity. [Related pubchem assays (depositor defined):AID2097, AID2223, AID489010, AID492950]; assay type: functional
T6 sequence (P9WHJ3 whole entry): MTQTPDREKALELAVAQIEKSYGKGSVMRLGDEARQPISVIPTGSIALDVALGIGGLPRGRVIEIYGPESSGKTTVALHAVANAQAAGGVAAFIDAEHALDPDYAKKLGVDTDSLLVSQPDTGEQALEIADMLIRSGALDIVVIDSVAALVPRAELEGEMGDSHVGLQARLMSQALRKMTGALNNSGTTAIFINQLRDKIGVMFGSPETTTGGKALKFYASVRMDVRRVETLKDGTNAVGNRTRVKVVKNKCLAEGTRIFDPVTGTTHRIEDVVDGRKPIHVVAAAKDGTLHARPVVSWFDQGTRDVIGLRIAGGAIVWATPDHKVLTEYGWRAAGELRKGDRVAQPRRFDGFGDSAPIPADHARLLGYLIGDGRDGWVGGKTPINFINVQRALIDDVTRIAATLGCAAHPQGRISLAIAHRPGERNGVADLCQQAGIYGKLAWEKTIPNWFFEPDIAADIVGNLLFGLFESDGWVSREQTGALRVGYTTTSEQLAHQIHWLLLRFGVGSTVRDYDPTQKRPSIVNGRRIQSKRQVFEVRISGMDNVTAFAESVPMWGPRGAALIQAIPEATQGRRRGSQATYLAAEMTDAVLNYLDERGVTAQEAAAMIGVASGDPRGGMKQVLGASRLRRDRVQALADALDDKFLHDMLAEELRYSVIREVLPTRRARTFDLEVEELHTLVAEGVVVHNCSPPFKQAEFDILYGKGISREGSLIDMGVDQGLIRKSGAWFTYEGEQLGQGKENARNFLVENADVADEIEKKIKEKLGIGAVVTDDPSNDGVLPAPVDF

Nonstructural protein 1 = Nonstructural protein 1 (Influenza A virus, UniProt Q194T2); assay type: functional, Influenza A virus (A/California/07/2009(H1N1))
Sequence of Nonstructural protein 1 (Q194T2 whole entry): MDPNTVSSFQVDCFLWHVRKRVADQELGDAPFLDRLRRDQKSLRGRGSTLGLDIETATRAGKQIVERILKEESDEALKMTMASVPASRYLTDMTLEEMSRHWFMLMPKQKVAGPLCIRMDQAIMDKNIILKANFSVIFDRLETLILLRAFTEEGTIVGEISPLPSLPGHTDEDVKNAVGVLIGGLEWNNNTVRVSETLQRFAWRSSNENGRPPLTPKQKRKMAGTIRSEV

Sequence of DNA dC->dU-editing enzyme APOBEC-3A (P31941 whole entry): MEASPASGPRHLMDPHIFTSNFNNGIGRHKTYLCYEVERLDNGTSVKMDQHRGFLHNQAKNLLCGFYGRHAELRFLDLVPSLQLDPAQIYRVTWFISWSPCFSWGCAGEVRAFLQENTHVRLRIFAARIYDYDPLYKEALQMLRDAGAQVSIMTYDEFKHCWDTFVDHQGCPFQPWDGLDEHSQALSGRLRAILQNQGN

CCn1c(=O)c2c3c(sc2n2c(=S)[nH]nc12)CCC3
IC50 [1]: > 100 µM (inactive)
IC50 [2]: 4.78 µM (active)
IC50 [3]: > 64 µM (inactive)
IC50 [4]: 26.4 µM (active)

CC(C)(C)c1cc(C(=S)N2CCN(CCO)CC2)cc(C(C)(C)C)c1O
EC50 [5]: > 79.4 µM (not active)
IC50 [1]: > 100 µM (inactive)
IC50 [2]: 13.4 µM (active)
EC50 [6]: > 79.4 µM (not active)
EC50 [7]: > 79.4 µM (not active)

COc1ccc2oc(-c3ccccc3)c(C(=O)N3CCOCC3)c2c1
AC50 (Trypsin): 4.55 µM (active)

Cc1ccc(C2=NN(S(=O)(=O)c3ccccc3)C(c3ccccc3O)C2)cc1 (stereo unspecified)
IC50 (Coagulation factor XII): > 50 µM (inactive)
AC50 [8]: > 100 µM (inactive)

O=C(COC(=O)COc1ccccc1Cl)Nc1ccccc1OC(F)F
IC50 (Coagulation factor XII): > 50 µM (inactive)

CCOc1ccc(N(CC(=O)Nc2ccc3c(c2)OCCO3)S(=O)(=O)c2c(C)noc2C)cc1
IC50 (Coagulation factor XII): > 50 µM (inactive)

O=C1c2ccccc2-c2onc3ccc(N4CCCC4)c1c23
EC50 [9]: > 260 µM (inactive)
AC50 [10]: > 380 µM (inactive)
IC50 [3]: 50 µM (inactive)
AC50 [11]: 1.67 µM (active)
EC50 (Protein RecA): 606 nM (active)
IC50 (Nonstructural protein 1): 23.6 µM (active)
AC50 [8]: 15.1 µM (active)

— ChEMBL document CHEMBL1201862, “PubChem BioAssay data set” (2004)
